# Results from patent publication US7807662B2, “Platinum IV complex inhibitor” (University of South Florida, priority 2004, dated 2010).
# What was measured:
# Stat3 [1] = molecular target: T1, Stat3 (Homo sapiens, UniProt P40763); conditions: from reference 35; cited from earlier work
# T1 construct: nuclear extracts of equal total protein containing active Stat1, Stat3 and Stat5 were pre-incubated with different concentrations of IS3 295; endogenous in cells; host or cells: nuclear extracts
# Stat1 = molecular target: T2, Stat1 (Homo sapiens, UniProt P42224); experiment: In vitro DNA-binding activity assay with EMSA, Stat1; assay type: biochemical; conditions: hSIE probe, pre-incubation with compound
# T2 construct: nuclear extracts of equal total protein containing active Stat1, Stat3 and Stat5 were pre-incubated with different concentrations of IS3 295; endogenous in cells; host or cells: nuclear extracts
# T2 sequence (P42224 2-750 limits assumed): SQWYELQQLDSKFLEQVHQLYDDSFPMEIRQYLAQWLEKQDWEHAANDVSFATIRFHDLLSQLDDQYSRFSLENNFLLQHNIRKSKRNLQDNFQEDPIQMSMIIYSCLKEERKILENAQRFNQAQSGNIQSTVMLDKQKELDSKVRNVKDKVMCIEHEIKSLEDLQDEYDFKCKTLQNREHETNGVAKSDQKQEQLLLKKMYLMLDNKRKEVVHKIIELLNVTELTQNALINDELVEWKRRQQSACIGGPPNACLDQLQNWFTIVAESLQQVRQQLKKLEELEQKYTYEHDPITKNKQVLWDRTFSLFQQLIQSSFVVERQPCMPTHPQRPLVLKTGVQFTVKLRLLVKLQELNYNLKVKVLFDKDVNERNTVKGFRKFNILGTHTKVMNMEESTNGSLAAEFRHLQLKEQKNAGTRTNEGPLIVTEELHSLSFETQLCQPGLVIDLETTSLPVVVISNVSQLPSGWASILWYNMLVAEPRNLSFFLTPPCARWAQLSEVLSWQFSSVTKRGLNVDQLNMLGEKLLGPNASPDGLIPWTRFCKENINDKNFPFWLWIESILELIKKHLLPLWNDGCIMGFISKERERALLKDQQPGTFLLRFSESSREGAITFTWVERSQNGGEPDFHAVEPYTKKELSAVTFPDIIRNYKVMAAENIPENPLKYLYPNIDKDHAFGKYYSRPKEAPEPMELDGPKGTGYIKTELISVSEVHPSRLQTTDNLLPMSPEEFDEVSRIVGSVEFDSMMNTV
# Description: (§1) Nuclear extract preparation and gel shift assays—Nuclear extract preparation from v-Src-transformed fibroblasts (NIH3T3/v-Src) or tumor cell lines and electrophoretic mobility shift assay were carried out as previously described (11, 13, 37). The ^32P-labeled oligonucleotide probes used were hSIE (high affinity sis-inducible element, m67 variant, 5′-[…]) (SEQ ID NO:1) that bound Stat1 and Stat3 (13, 45) and MGFe (mammary gland factor element from the bovine β-casein gene promoter, 5′-AGATTTCTAGGAATTCAA) (SEQ ID NO:2) for Stat1 and Stat5 binding (46, 47). Except where indicated, inhibitor compound was pre-incubated with the nuclear extract for 30 minutes at room temperature prior to incubation with radiolabeled probe.
# (§2) Compounds from the NCI diversity set were evaluated for inhibition of Stat3 signaling in in vitro DNA-binding activity assay with analysis of electrophoretic mobility shift assay (EMSA). A platinum (IV) complex, IS3 295 (NSC 295558) (FIG. 1E), was identified as potent inhibitor of Stat3, which was further characterized in a number of assays for its anti-Stat3 property. […]
# E2F1 = E2F1 (Homo sapiens, UniProt Q01094); experiment: In vitro DNA-binding activity assay with EMSA, E2F1 (control); assay type: biochemical; conditions: DHFR promoter sequence probe
# From the text: In control studies, the effect of IS3 295 was investigated on the DNA-binding activity of E2F1 that was unrelated to Stat proteins.
# Stat3 [2] = molecular target: T1, Stat3; experiment: In vitro DNA-binding activity assay with EMSA, Stat3; assay type: biochemical; conditions: hSIE probe, pre-incubation with compound
# Description: as §1, §2
# Stat5 = experiment: In vitro DNA-binding activity assay with EMSA, Stat5; assay type: biochemical; conditions: MGFe probe
# Description: as §1, §2
# T1 sequence (P40763 2-770 limits assumed, species assumed): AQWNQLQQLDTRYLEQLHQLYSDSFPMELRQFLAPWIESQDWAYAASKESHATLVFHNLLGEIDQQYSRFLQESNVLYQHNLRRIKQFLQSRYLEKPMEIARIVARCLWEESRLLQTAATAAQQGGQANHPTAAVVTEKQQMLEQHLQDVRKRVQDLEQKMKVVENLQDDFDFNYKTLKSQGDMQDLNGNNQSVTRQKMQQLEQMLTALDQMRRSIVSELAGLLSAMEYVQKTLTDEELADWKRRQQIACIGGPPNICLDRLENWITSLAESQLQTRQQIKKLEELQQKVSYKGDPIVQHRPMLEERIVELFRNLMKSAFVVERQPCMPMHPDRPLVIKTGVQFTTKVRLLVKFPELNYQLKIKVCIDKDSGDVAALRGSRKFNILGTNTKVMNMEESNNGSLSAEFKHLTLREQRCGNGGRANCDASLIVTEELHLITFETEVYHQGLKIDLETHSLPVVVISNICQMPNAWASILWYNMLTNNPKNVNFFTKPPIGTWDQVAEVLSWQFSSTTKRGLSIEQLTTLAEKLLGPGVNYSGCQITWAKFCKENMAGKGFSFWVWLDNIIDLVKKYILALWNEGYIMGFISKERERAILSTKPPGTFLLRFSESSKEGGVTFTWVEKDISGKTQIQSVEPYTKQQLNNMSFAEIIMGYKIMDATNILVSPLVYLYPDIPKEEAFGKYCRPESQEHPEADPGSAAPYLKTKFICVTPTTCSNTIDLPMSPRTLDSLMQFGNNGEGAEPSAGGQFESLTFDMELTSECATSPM
# Sequence of E2F1 (Q01094 whole entry, species assumed): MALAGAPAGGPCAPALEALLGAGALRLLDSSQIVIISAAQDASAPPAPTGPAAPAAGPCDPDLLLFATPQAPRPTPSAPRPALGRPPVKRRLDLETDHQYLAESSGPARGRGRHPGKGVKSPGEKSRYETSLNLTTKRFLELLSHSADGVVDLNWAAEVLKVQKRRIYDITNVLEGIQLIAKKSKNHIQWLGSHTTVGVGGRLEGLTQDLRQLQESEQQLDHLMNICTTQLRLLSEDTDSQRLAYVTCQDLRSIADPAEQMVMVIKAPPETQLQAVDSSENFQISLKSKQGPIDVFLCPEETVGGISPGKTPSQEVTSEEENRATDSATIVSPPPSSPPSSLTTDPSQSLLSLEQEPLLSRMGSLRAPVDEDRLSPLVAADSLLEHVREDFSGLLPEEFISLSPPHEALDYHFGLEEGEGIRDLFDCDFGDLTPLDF
structure (smiles),measurement,setting,value
"N.N.[Cl][Pt][Cl] [cisplatin, reference compound]",effect on Stat3 activity,Stat3 [1],no effect
same,level of DNA-binding activity of Stat1,Stat1,no detectable effect
same,E2F1 DNA-binding activity,E2F1,no detectable effect
same,level of DNA-binding activity of Stat3,Stat3 [2],no detectable effect
same,level of DNA-binding activity of Stat5:Stat5 dimers,Stat5,no detectable effect
